Assay results published in PMC5715404, “Design, Synthesis, and Evaluation of Ribose-Modified Anilinopyrimidine Derivatives as EGFR Tyrosine Kinase Inhibitors” (Frontiers in Chemistry, 2017).
Entries after “also recorded” stand apart in the source; their conditions may differ.

How the values were obtained:
EGFR L858R/T790M = molecular target: T1, EGFR L858R/T790M (Homo sapiens, UniProt P00533, L858R/T790M); experiment: ELISA-based EGFR-TK kinase assay, EGFR L858R/T790M; format: biochemical; conditions: for IC50 / inhibitory activity against EGFR tyrosine kinases (in words): ELISA; for IC50: 10 μmol/L ATP solution, 37°C 1 h, mean ± SD of at least two determinations, read-out: EGFR tyrosine kinase IC50, EGFR T790M/L858R; for selectivity for EGFR L858R/T790M over WT EGFR (in words): EGFR L858R/T790M versus WT EGFR; for inhibitory activity against EGFR tyrosine kinases (in words): EGFR WT and EGFR L858R/T790M
T1 construct: Kinases domain of EGFR WT and EGFR L858R/T790M were expressed; made in house; host or cells: baculovirus expression system (Bac-to-Bac)
Procedure: (§1) Kinases domain of EGFR WT and EGFR L858R/T790M were expressed using the Bac-to-Bac™ baculo virus expression system (Invitrogen, Carlsbad, CA, USA) and purified in Ni-NTA columns (QIAGEN Inc., Valencia, CA, USA). The kinase activity was evaluated with enzyme-linked immunosorbent assay (ELISA). Briefly, 20 μg/mL Poly (Glu, Tyr) 4:1 (Sigma, St. Louis, MO) was precoated in 96-well ELISA plates as substrate. After adding 50 μL of 10 μmol/L ATP solution which was diluted in kinase reaction buffer (50 mM HEPES pH 7.4, 20 mM MgCl2, 0.1 mM MnCl2, 0.2 mM Na3VO4, 1 mM DTT), the plate was treated with 1 μL of indicated concentrations of compounds (dissolved in DMSO) per well. Experiments at each concentration were performed in duplicate. Reaction was initiated by adding tyrosine kinase diluted in kinase reaction buffer. After incubation at 37°C for 1 h, the wells were washed three times with phosphate buffered saline (PBS) containing 0.1% Tween 20 (T-PBS). One hundred microliters of anti-phosphotyrosine (PY99) antibody (1:1,000, Santa Cruz Biotechnology, Santa Cruz, CA) diluted in T-PBS containing 5 mg/mL BSA was added and the plate was incubated at 37°C for 30 min. After the plate was washed three times, 100 μL horseradish peroxidase-conjugated goat anti-mouse IgG (1:2,000, Calbiochem, SanDiego, CA) was added and the plate was incubated at 37°C for 30 min. The plate was washed, added with 100 μL citrate buffer (0.1 M, pH 5.5) containing 0.03% H2O2. Then 2 mg/mL o-phenylenediamine was added, and samples were incubated at room temperature until color emerged. The reaction was terminated immediately by adding 50 μL of 2 M H2SO4. Plate was read using a multiwell spectrophotometer (VERSAmax™, Molecular Devices, Sunnyvale, CA, USA) at 492 nm. The inhibitory rate (%) was calculated with the formula: [1 − (A492 treated/A492 control)] × 100%. IC50 values were calculated from the inhibitory curves.

EGFR WT = molecular target: T2, EGFR WT (Homo sapiens, UniProt P00533); experiment: ELISA-based EGFR-TK kinase assay, EGFR WT; format: biochemical; conditions: 10 μmol/L ATP solution, 37°C 1 h, mean ± SD of at least two determinations, read-out: EGFR tyrosine kinase IC50, EGFR
T2 construct: Kinases domain of EGFR WT and EGFR L858R/T790M were expressed; made in house; host or cells: baculovirus expression system (Bac-to-Bac)
Procedure: as §1

T2 sequence (P00533 712-979 limits assumed): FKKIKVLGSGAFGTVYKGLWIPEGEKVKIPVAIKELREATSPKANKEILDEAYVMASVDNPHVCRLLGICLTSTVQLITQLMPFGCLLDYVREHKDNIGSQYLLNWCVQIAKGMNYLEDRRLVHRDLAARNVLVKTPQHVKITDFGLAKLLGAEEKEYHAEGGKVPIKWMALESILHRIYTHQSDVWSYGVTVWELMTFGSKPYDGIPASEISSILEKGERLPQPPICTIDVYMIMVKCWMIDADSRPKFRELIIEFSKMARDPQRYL
T1 sequence (P00533 712-979 T790M/L858R limits assumed): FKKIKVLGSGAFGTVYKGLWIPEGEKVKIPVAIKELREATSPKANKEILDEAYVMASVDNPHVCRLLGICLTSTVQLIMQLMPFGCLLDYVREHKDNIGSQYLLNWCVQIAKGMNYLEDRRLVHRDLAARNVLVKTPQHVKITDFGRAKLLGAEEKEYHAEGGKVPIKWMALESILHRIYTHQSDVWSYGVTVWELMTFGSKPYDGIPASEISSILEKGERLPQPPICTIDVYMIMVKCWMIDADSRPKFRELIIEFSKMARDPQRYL

| Structure (SMILES) | IC50 (EGFR L858R/T790M) | IC50 (EGFR WT) | selectivity for EGFR L858R/T790M over WT EGFR (in words) (EGFR L858R/T790M) | inhibitory activity against EGFR tyrosine kinases (in words) (EGFR L858R/T790M) |
| --- | --- | --- | --- | --- |
| COc1cc(N2CCN(C)CC2)ccc1Nc1ncc(Cl)c(OC[C@H]2O[C@@H](N=[N+]=[N-])[C@H](O)[C@@H]2O)n1 [Compound 24] | > 10 µM | > 10 µM | – | – |
| COc1cc(N2CCN(C)CC2)ccc1Nc1ncc(Cl)c(OC[C@H]2OC(O)[C@H](O)[C@@H]2O)n1 (stereo partly drawn) [Compound 26] | > 10 µM | > 10 µM | – | – |
| COc1cc(N2CCN(C)CC2)ccc1Nc1ncc(Cl)c(O[C@H]2[C@@H](O[Si](C)(C)C(C)(C)C)[C@H](N=[N+]=[N-])O[C@@H]2CO)n1 [Compound 25] | > 10 µM | > 10 µM | – | – |
| C=CC(=O)N[C@H]1O[C@H](CO)[C@@H](Oc2nc(Nc3ccc(N4CCN(C)CC4)cc3OC)ncc2Cl)[C@H]1O[Si](C)(C)C(C)(C)C [Compound 1d, 3-O-[5-chloro-2-N-(2-methoxy-4-(4-methylpiperazin-1-yl)phenyl)pyrimidin-4-yl]-2-O-tert-butyldimethylsilyl-α-D-ribofuranosyl acrylamide] | > 10 µM | > 10 µM | – | no inhibitory activities; also recorded: no inhibitory activity |

More lines, main results first:

| IC50 (EGFR L858R/T790M) | IC50 (EGFR WT) | Structure (SMILES) | selectivity for EGFR L858R/T790M over WT EGFR (in words) (EGFR L858R/T790M) | inhibitory activity against EGFR tyrosine kinases (in words) (EGFR L858R/T790M) |
| --- | --- | --- | --- | --- |
| 0.62 µM | > 10 µM | C=CC(=O)N[C@H]1[C@H]2OC(C)(C)O[C@H]2O[C@@H]1COc1nc(Nc2ccc(N3CCN(C)CC3)cc2OC)ncc1Cl [Compound 1a, 1,2-O-isopropylidene-3-N-acryloyl-3-deoxy-5-O-[5-chloro-2-N-(2-methoxy-4-(4-methylpiperazin-1-yl)phenyl)pyrimidin-4-yl]-α-D-ribofuranoside] | potent and specific inhibitory activity; also recorded: good selectivity | – |
| > 10 µM | > 10 µM | C=CC(=O)NC1O[C@H](COc2nc(Nc3ccc(N4CCN(C)CC4)cc3OC)ncc2Cl)[C@@H](O)[C@H]1O (stereo partly drawn) [Compound 1c, 5-O-[5-chloro-2-N-(2-methoxy-4-(4-methylpiperazin-1-yl)phenyl)pyrimidin-4-yl]-D-ribofuranosyl acrylamide] | – | no inhibitory activities; also recorded: no inhibitory activity |
| 2.64 µM | > 10 µM | C=CC(=O)N[C@@H]1[C@@H](COc2nc(Nc3ccc(N4CCN(C)CC4)cc3OC)ncc2Cl)OC(O)[C@@H]1O (stereo partly drawn) [Compound 1b, 3-N-acryloyl-3-deoxy-5-O-[5-chloro-2-N-(2-methoxy-4-(4-methylpiperazin-1-yl)phenyl)pyrimidin-4-yl]-D-ribofuranose] | specific inhibitory activity | – |
